Read-outs that look alike come from different tables or passages of the source. Where a SMILES comes first, the peptide text is derived from it. Bridges are numbered along the chain shown (N, C = ends). Where no end group is shown, it is not given here.
Key:
[1] = test system: calcium channels (ryanodine receptors); settings: prior reports; cited from earlier work
[2] = test system: panel of 20 ion channels; assay type: cell-based
Description: This example describes a method for assaying ion channel activity in cells.
Peptides were screened in duplicate at final concentrations of 20 μM and 200 nM, as determined by amino acid analysis, and diluted into HEPES buffered physiological saline (HBPS). HEK293 or CHO cells from the American Type Culture Collection (ATCC) were transfected with the appropriate ion channel before use. HEK293 cells were grown in Dulbecco's Modified Eagle Medium/Nutrient Mixture F-12, and CHO cells were cultured in Ham's F-12 media. All cultures were supplemented with 10% fetal bovine serum, 100 U/ml penicillin G, 100 μg/ml streptomycin sulfate, and the appropriate selection antibiotics. Prior to use, cells were washed twice with Hank's Balanced Salt Solution, and treated with Accutase cell detachment solution (Sigma-Aldrich). Cells were then washed. Peptides and controls were incubated with cells for at least five minutes.
Percent inhibition was defined as: (1-(Ipeptide/Icontrol))×100%).
Percent values were calculated using the following formula: % activation=(IPeptide/Icontrol)×100%, where IPeptide is the current produced by co-application a peptide with agonist, and Icontrol refers to the current produced by stimulation in control. Control used for each ion channel is the reference compound matched to a particular channel, as illustrated in TABLE 10 below.

[3] = biological target: T1, Nav1.5 cardiac sodium channel (human SCN5A gene) (Homo sapiens, UniProt Q14524); settings: read-out: IC50 Nav1.5 ion channel inhibition, TP2; human Nav1.5 in CHO cells; TP2 (inactivated state inhibition)
[4] = biological target: Kv1.5 potassium channel (human KCNA5 gene) (Homo sapiens, UniProt P22460); assay: cell-based; parameters: host or cells: CHO; settings: human Kv1.5 in CHO cells
Sequence of Kv1.5 potassium channel (human KCNA5 gene) (P22460 whole entry): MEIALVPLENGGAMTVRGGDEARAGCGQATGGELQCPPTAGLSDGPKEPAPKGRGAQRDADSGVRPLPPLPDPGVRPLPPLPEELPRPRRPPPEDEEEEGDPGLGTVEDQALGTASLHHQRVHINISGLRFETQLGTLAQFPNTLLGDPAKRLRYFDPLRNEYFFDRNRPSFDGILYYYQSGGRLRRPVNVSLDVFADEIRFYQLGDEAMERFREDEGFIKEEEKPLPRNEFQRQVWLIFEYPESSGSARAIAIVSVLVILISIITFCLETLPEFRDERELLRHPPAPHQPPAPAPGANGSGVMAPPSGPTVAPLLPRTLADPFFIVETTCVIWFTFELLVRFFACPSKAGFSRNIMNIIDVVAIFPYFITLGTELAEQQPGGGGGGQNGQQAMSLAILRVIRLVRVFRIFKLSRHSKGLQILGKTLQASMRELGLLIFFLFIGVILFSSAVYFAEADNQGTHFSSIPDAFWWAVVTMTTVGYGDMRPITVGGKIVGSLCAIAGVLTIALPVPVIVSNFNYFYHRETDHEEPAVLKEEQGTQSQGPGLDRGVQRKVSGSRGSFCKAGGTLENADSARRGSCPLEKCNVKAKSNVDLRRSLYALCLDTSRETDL

[5] = biological target: Kv1.3 potassium channel (human KCNA3 gene) (Homo sapiens, UniProt P22001); assay: cell-based; parameters: host or cells: CHO; settings: human Kv1.3 in CHO cells
Sequence of Kv1.3 potassium channel (human KCNA3 gene) (P22001 whole entry): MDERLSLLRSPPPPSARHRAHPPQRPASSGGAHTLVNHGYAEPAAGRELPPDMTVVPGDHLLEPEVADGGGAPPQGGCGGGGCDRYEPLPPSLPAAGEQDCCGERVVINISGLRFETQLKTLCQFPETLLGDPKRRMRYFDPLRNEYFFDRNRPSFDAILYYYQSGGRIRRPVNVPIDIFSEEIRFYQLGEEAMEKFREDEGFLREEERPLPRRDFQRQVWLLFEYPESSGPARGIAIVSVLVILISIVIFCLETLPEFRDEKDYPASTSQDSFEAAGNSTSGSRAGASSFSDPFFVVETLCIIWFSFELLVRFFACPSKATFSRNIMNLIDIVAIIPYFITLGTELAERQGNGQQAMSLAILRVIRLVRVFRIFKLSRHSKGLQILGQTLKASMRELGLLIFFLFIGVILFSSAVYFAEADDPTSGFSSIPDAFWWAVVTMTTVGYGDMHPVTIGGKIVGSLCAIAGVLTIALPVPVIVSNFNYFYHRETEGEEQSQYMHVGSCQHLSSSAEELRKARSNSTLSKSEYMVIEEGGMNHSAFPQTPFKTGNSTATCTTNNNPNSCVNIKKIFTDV

[6] = biological target: T1, Nav1.5 cardiac sodium channel (human SCN5A gene); assay: cell-based
[7] = biological target: Nav1.7 sodium channel (human SCN9A gene) (Homo sapiens, UniProt Q15858); assay: cell-based; parameters: expressed in transfected cells; host or cells: CHO cells; settings: human Nav1.7 in CHO cells
[8] = biological target: Nav1.4 sodium channel (human SCN4A gene) (Homo sapiens, UniProt P35499); assay: cell-based; parameters: host or cells: CHO; settings: human Nav1.4 in CHO cells
[9] = biological target: Nav1.3 sodium channel (human SCN3A gene) (Homo sapiens, UniProt Q9NY46); assay: cell-based; parameters: host or cells: CHO
Sequence of Nav1.3 sodium channel (human SCN3A gene) (Q9NY46 whole entry): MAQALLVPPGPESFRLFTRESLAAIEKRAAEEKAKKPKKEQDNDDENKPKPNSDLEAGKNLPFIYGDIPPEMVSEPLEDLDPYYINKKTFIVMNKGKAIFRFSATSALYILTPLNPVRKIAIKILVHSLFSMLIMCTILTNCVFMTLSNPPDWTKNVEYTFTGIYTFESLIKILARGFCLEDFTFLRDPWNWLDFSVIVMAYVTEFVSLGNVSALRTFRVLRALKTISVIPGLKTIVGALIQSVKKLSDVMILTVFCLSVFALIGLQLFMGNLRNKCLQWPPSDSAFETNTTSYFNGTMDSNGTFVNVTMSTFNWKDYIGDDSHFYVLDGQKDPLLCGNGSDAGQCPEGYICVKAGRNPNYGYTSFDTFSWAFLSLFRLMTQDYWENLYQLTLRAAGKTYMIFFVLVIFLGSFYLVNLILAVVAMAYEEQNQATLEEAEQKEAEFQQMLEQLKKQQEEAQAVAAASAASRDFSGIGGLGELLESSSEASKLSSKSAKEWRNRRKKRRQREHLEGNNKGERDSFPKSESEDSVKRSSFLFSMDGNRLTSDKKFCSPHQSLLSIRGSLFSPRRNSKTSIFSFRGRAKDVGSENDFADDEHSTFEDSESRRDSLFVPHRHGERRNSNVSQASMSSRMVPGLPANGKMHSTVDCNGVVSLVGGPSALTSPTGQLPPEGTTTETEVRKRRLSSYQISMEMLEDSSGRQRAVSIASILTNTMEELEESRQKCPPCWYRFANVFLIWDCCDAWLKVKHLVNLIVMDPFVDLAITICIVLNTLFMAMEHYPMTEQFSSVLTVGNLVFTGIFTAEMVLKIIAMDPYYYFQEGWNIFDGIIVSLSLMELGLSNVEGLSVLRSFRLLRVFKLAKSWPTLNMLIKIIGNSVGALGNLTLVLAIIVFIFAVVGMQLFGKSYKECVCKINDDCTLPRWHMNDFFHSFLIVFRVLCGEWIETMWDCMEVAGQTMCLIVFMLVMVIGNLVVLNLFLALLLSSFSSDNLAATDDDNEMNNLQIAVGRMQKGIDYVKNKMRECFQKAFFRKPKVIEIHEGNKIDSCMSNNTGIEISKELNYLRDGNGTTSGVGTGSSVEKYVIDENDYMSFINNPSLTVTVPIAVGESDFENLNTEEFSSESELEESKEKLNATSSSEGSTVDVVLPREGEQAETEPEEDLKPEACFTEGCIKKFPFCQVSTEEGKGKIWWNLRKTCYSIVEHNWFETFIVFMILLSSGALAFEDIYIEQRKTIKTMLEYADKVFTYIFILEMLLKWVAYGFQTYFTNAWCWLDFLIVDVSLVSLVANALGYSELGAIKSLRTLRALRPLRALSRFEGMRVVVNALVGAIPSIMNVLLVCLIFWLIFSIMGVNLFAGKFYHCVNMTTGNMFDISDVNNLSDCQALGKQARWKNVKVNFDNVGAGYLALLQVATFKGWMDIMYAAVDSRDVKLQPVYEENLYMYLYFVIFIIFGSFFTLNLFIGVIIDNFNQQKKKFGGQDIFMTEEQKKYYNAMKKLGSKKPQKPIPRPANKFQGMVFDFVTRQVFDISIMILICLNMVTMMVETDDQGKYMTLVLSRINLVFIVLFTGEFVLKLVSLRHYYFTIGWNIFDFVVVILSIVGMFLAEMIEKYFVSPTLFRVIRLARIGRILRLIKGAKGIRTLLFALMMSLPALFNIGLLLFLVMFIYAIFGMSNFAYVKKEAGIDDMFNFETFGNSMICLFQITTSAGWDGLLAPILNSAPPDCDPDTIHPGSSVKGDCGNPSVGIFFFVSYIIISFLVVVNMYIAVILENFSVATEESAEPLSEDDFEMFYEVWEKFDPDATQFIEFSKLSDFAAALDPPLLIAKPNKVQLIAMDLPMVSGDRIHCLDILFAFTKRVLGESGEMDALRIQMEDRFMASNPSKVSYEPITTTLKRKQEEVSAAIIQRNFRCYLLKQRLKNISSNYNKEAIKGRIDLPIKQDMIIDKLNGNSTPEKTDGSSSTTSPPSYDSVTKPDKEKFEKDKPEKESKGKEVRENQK

[10] = biological target: T2, Nav1.7 (Homo sapiens, UniProt Q15858); assay: cell-based; assay type: cell-based; settings: read-out: Ion channel activity (ion channel inhibition)
T2 construct: host or cells: HEK293 or CHO

[11] = biological target: T3, Cav2.2 (Homo sapiens, UniProt Q00975); assay: cell-based; settings: read-out: Ion channel activity (ion channel inhibition)
T3 construct: host or cells: HEK293 or CHO
In short: (§1)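 Peptides were tested in duplicate at final 20 μM and 200 nM, with concentration set by amino acid analysis, in HEPES-buffered saline. They were applied for at least 5 min to HEK293 or CHO cells transfected with each channel. Currents were expressed as % inhibition, 1-(Ipeptide/Icontrol)×100, or % activation, Ipeptide/Icontrol×100, against a channel-matched reference compound.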

[12] = biological target: T4, Cav2.1 (Homo sapiens, UniProt O00555); assay: cell-based; settings: read-out: Ion channel activity (ion channel inhibition)
T4 construct: host or cells: HEK293 or CHO
In short: as §1

[13] = biological target: T5, hERG (Homo sapiens, UniProt Q12809); assay: in vitro; settings: for activity at 20 µM: human
T5 sequence (Q12809 whole entry): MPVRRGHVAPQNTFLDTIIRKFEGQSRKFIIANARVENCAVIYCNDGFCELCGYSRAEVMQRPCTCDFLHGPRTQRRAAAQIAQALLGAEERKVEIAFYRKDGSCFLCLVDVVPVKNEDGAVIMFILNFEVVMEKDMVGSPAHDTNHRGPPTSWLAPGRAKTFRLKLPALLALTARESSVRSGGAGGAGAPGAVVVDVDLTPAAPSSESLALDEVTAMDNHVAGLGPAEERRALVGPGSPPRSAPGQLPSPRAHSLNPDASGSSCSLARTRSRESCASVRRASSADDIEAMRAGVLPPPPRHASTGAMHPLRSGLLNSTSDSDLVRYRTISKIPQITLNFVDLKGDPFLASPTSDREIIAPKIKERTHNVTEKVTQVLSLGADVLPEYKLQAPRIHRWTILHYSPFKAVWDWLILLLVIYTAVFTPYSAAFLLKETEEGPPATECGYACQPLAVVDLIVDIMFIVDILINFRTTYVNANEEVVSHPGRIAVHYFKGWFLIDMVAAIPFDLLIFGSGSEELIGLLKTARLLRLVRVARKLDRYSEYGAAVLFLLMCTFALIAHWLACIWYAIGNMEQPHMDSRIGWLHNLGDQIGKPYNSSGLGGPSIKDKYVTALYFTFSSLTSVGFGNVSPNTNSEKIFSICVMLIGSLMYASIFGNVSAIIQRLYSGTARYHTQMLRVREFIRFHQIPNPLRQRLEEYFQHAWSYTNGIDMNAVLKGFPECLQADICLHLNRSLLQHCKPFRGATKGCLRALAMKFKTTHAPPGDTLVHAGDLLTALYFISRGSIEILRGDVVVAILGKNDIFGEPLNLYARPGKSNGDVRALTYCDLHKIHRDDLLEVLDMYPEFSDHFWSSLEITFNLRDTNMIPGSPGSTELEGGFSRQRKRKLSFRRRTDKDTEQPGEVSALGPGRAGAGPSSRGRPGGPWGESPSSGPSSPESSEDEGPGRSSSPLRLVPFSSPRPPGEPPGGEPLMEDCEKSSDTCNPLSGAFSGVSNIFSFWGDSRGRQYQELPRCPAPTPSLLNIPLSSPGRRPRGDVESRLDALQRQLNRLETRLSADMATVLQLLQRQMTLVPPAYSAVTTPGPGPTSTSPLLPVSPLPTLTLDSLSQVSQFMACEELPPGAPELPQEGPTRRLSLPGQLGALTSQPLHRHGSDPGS
In short: as §1

[14] = biological target: Nav1.5 (Homo sapiens, UniProt Q14524); assay: in vitro
In short: as §1

[15] = biological target: T5, hERG; settings: cited from earlier work
[16] = biological target: T6, Kv1.2 (Homo sapiens, UniProt P16389); assay: cell-based; assay type: cell-based; settings: Kv1.2, percentage of control, 100% = no change, read-out: Ion channel activity (ion channel inhibition); for activity at 20 µM: peptide at 20 μM
T6 construct: host or cells: HEK293 or CHO
T6 sequence (P16389 whole entry): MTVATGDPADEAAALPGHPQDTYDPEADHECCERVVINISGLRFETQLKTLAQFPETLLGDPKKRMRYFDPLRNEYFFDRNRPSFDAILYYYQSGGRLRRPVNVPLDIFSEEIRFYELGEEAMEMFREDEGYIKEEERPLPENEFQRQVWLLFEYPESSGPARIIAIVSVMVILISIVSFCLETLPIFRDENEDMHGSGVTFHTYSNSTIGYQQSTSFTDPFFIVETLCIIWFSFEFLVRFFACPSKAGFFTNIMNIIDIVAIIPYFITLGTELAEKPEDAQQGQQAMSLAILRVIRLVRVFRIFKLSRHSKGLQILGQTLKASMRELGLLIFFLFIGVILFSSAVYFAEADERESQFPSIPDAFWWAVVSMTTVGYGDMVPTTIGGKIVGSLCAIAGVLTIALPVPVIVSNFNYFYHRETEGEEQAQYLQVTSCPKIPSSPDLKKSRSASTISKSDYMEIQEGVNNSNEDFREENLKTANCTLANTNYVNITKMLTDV
In short: as §1

[17] = biological target: T7, Kv1.3 (Homo sapiens, UniProt P22001); assay: cell-based; assay type: cell-based; settings: Kv1.3; peptide at 20 μM; percentage of control, 100% = no change; read-out: Ion channel activity (ion channel inhibition)
T7 construct: host or cells: HEK293 or CHO
T7 sequence (P22001 whole entry): as the sequence (P22001 whole entry) above
In short: as §1

GSSEKDCIKHLQRCRENKDCCSKKCSRRGTNPEKRCR [SEQ ID NO: 3]
Inhibition of calcium channels (ryanodine receptors), reported [1]: reported to inhibit calcium channels (ryanodine receptors)
Activity against additional potassium channels or serotonin receptors (e.g., 5-HT3a) ([2]; 0.2 or 20 μM, FIG. 2): showed activity against additional potassium channels or serotonin receptors (e.g., 5-HT3a)

CC[C@H](C)[C@@H]1NC(=O)[C@H](CCC(=O)O)NC(=O)[C@H](CCCNC(=N)N)NC(=O)[C@H](CCCNC(=N)N)NC(=O)[C@@H]2CSSC[C@@H](C(=O)N[C@@H](Cc3ccc(O)cc3)C(=O)N[C@@H](CCCNC(=N)N)C(=O)N[C@@H](CC(N)=O)C(=O)O)NC(=O)[C@H](C(C)C)NC(=O)[C@@H]3CSSC[C@H](NC(=O)[C@H](CO)NC(=O)CNC(=O)CNC(=O)[C@H](CCC(N)=O)NC(=O)[C@@H](NC(=O)[C@H](CCCCN)NC(=O)[C@@H](NC(=O)[C@H](CC(N)=O)NC(=O)[C@@H](NC(=O)[C@H](CCC(N)=O)NC(=O)[C@@H](NC(=O)[C@H](CCC(N)=O)NC(=O)[C@H](CO)NC(=O)CN)C(C)C)[C@@H](C)O)C(C)C)CSSC[C@H](NC(=O)[C@H](CCCCN)NC(=O)CNC(=O)[C@H](C)NC(=O)[C@H](C)NC(=O)[C@H](C(C)C)NC(=O)CNC1=O)C(=O)N[C@@H]([C@@H](C)CC)C(=O)N[C@@H](CC(N)=O)C(=O)NCC(=O)N[C@@H](CCCCN)C(=O)N3)C(=O)N[C@@H](C)C(=O)N[C@@H](CO)C(=O)N[C@@H](C(C)C)C(=O)N2 [SEQ ID NO: 10] (H-GSQVQTNVKCQGGSCASVCRREIGVAAGKCINGKCVCYRN-OH; disulfide 10-30, 15-35, 19-37)
IC50 [3]: > 1000 nM
IC50 ([4]; test pulse TP1, read-out: IC50 Kv1.5 ion channel inhibition, TP1): > 1000 nM
IC50 ([4]; test pulse TP6, read-out: IC50 Kv1.5 ion channel inhibition, TP6): > 1000 nM
IC50 ([5]; test pulse TP1, read-out: IC50 Kv1.3 ion channel inhibition, TP1): > 1000 nM
IC50 ([5]; test pulse TP6, read-out: IC50 Kv1.3 ion channel inhibition, TP6): > 1000 nM
IC50 [6]: > 1000 nM
IC50 ([7]; TP1 (tonic inhibition), read-out: IC50 Nav1.7 ion channel inhibition, TP1): > 1000 nM
IC50 ([7]; TP2 (inactivated state inhibition), read-out: IC50 Nav1.7 ion channel inhibition, TP2): > 1000 nM
IC50 ([8]; TP1 (tonic inhibition), read-out: IC50 Nav1.4 ion channel inhibition, TP1): > 1000 nM
IC50 ([8]; TP2 (inactivated state inhibition), read-out: IC50 Nav1.4 ion channel inhibition, TP2): > 1000 nM
IC50 ([9]; human Nav1.3 in CHO cells, TP1 (tonic inhibition), read-out: IC50 Nav1.3 ion channel inhibition, TP1): > 1000 nM
IC50 ([9]; human Nav1.3 in CHO cells, TP2 (inactivated state inhibition), read-out: IC50 Nav1.3 ion channel inhibition, TP2): > 1000 nM

CC[C@H](C)[C@@H]1NC(=O)[C@H](CC(N)=O)NC(=O)[C@H](CCCNC(=N)N)NC(=O)[C@@H]2CCCN2C(=O)[C@H](Cc2c[nH]c3ccccc23)NC(=O)[C@H](CCCCN)NC(=O)[C@H](CO)NC(=O)[C@H](CCCCN)NC(=O)[C@@H]2CSSC[C@@H]3NC(=O)[C@H](CCCCN)NC(=O)CNC(=O)[C@H](Cc4c[nH]c5ccccc45)NC(=O)[C@H](Cc4ccccc4)NC(=O)[C@H](CCCNC(=N)N)NC(=O)[C@H](C(C)C)NC(=O)[C@@H](NC(=O)[C@H](CC(=O)O)NC(=O)[C@H](CO)NC(=O)CN)CSSC[C@H](NC(=O)[C@H](CSSC[C@@H](C(=O)N[C@H](C(=O)N[C@@H](Cc4c[nH]c5ccccc45)C(=O)N[C@@H](CC(=O)O)C(=O)NCC(=O)N[C@@H](CO)C(=O)N[C@H](C(=O)NCC(=O)O)C(C)C)C(C)C)NC1=O)NC(=O)[C@H](CC(=O)O)NC(=O)[C@H](CO)NC(=O)[C@H]([C@@H](C)O)NC(=O)[C@H](CCC(N)=O)NC(=O)[C@H](CO)NC3=O)C(=O)N1CCC[C@H]1C(=O)N[C@@H](Cc1c[nH]cn1)C(=O)N[C@@H](CC(C)C)C(=O)N[C@@H](C)C(=O)N2 [SEQ ID NO: 7]
activity at 20 µM [10]: < 50%
activity at 20 µM [11]: < 50%
activity at 20 µM [12]: < 50%
activity at 20 µM [13]: < 50%
activity at 20 µM [14]: < 50%
Inhibition of voltage-sensitive calcium channels [2]: inhibited voltage-sensitive calcium channels

NC1=N[C@H](O)[C@H]2[C@H]3O[C@]4(O)O[C@@H]([C@@H](O)[C@@]2(N1)[C@@H]4O)[C@]3(O)CO [TTX, Tetrodotoxin, reference compound]
IC50 ([9]; read-out: IC50 Nav1.3 ion channel inhibition, TP1): 33 nM
IC50 ([9]; read-out: IC50 Nav1.3 ion channel inhibition, TP2): 28 nM

CC[C@H](C)[C@H](NC(=O)[C@H](CC(=O)O)NC(=O)[C@@H](NC(=O)[C@@H]1CCCN1C(=O)[C@H](CCCNC(=N)N)NC(=O)[C@H](CO)NC(=O)CN)[C@@H](C)O)C(=O)N[C@@H](CCCCN)C(=O)N[C@H]1CSSC[C@@H]2NC(=O)[C@H](CCCNC(=N)N)NC(=O)CNC(=O)[C@H](CC(N)=O)NC(=O)[C@H]([C@@H](C)O)NC(=O)[C@H](CCCCN)NC(=O)CNC(=O)[C@H](Cc3ccccc3)NC(=O)[C@H](CCCNC(=N)N)NC(=O)[C@H](CO)NC(=O)[C@H](CCCCN)NC(=O)[C@@H]3CSSC[C@@H](C(=O)N[C@@H](Cc4ccccc4)C(=O)O)NC(=O)[C@H](CC(=O)O)NC(=O)[C@H](CSSC[C@H](NC(=O)[C@H](CCC(N)=O)NC(=O)[C@H](Cc4ccc(O)cc4)NC(=O)[C@H](CO)NC(=O)[C@H](C)NC(=O)[C@H](CO)NC1=O)C(=O)N[C@@H](Cc1ccccc1)C(=O)N1CCC[C@H]1C(=O)N[C@@H](C(C)C)C(=O)N3)NC(=O)[C@H](CC(C)C)NC(=O)CNC(=O)[C@H](CC(N)=O)NC(=O)[C@H](C(C)C)NC2=O [SEQ ID NO: 17] (H-GSRPTDIKCSASYQCFPVCKSRFGKTNGRCVNGLCDCF-OH; disulfide 9-30, 15-35, 19-37)
Activity against / inhibition of hERG (Kv11.1) ([13]; 0.2 or 20 μM, FIG. 2): confirmed hERG inhibition
activity at 20 µM [13]: < 50%
hERG inhibition or binding, previously reported [15]: previously been demonstrated to bind to hERG
activity at 20 µM [16]: < 50%
activity at 20 µM [17]: < 50%

GSDRDSCIDKSRCSKYGYYQECQDCCKKAGHNGGTCMFFKCKCA (disulfide 7-25, 13-36, 22-41, 26-43) [SEQ ID NO: 14]
activity at 20 µM [13]: < 50%
hERG inhibition or binding, previously reported [15]: previously reported to inhibit hERG channels
Activity on potassium channels ([2]; potassium channels of the panel, 0.2 or 20 μM, FIG. 2): showed activity against additional potassium channels
activity at 0.2 µM ([16]; peptide at 0.2 μM): < 80%
activity at 20 µM [16]: < 50%

GSGDCLPHLKRCKENNDCCSKKCKRRGANPEKRCR [SEQ ID NO: 11]
Inhibition of calcium channels (ryanodine receptors), reported [1]: reported to inhibit calcium channels (ryanodine receptors)
Activity against additional potassium channels or serotonin receptors (e.g., 5-HT3a) ([2]; 0.2 or 20 μM, FIG. 2): showed activity against additional potassium channels or serotonin receptors (e.g., 5-HT3a)
